Assay results as given in patent US12544371B2, “Methods and compositions for treating acute lung injury and acute respiratory distress syndrome” (CalciMedica, Inc., priority 2020, dated 2026).
Entries after “also recorded” stand apart in the source; their conditions may differ. Like-named read-outs stand apart in the source and are kept apart here.

Key:
[1] = Mouse TLCS-induced and FAEE-induced pancreatitis models; format: in vivo
Description: (§1) Potential efficacy of Compound 1 in treating acute lung injury was established in three diverse in vivo models of AP that cause both pancreatic damage and lung inflammation (TLCS-induced, FAEE-induced, and caerulein-induced acute pancreatitis models).

[2] = test system: cytokine release from human lymphocytes; test: In vitro studies of cytokine release from human lymphocytes; format: cell-based
[3] = PD/PK study in patients with acute pancreatitis (Compound 1 Test 202); format: in vivo, human
Method: (§2) In Compound 1 Test 202, a pharmacodynamic and pharmacokinetic study of Compound 1 in patients with acute pancreatitis, patients with AP (regardless of the presence of SIRS and/or hypoxemia) were administered a single IV infusion of 2.08 mg/kg of an injectable emulsion of Compound 1 and blood, plasma and serum were collected for analysis. It was planned to initially enroll 5 patients and then to enroll an additional 4 patients as needed. Ultimately, 7 patients were screened for the study, and all 7 enrolled in and completed the study. On Days 1 and 2, blood and plasma samples for PD and PK analyses, respectively, were obtained 30 minutes after completing the administration of Compound 1 and 24 hours from the start of the administration of Compound 1. In patients hospitalized at Day 5 and 10, blood and plasma samples were obtained; if discharged earlier, samples were obtained at the time of discharge. After discharge, patients returned to the hospital on Day 30 to provide final blood and plasma samples.

[4] = test system: CRAC channel-dependent stimulated IL-2 secretion; test: Ex vivo whole blood PD assay of CRAC channel-dependent IL-2 release (Test 202); format: in vivo, human
Method: as §2
An intravenous formulation of a CRAC inhibitor comprising Compound 1 allowed rapid delivery and onset of action when a single 2.08 mg/kg dose was given in human patients with acute pancreatitis (AP). Ex vivo whole blood pharmacodynamic (PD) assays of CRAC channel-dependent IL-2 release were performed.

[5] = Repeat-dose toxicity study in monkeys; conditions: in vivo, monkey
Method: (§3) Hemolysis testing concluded that Compound 1 was compatible with human plasma and non-hemolytic in human blood.
Plasma concentrations of compound rise steadily during the 4-hour infusion, with Tmax achieved at the end of infusion (4 hours). After the end of infusion, there is a rapid and prominent distribution phase followed by a prolonged period of residual drug levels. The terminal elimination phase has not yet been fully characterized as it appears to be much longer than was anticipated based on pre-clinical PK data in mouse, rat, dog and monkey. Plasma concentrations during the terminal phase are approximately 5% of Cmax values and, as indicated above, to date there have been no clinically significant AEs reported during this phase. Plasma exposures, defined by AUC0-24 h, appear to be dose-proportional and reached a maximum of 6710 ng*h/mL in Group 5, which is 4.3-fold below the mean AUC24 h in monkey at the NOAEL (29,000 ng*hr/mL).

[6] = test system: bacterial reverse mutation; test: Ames bacterial reverse mutation assay; format: cell-based; conditions: in vitro
[7] = Mouse caerulein-induced pancreatitis model; format: in vivo; conditions: single IP dose
Description: as §1

human blood and plasma = test: Hemolysis testing
Description: as §3

[8] = test system: IL-17 release by human PBMCs; test: IL-17 release by human PBMCs, isolated cell assay; format: cell-based; conditions: PBMC, SEM (n), read-out: Compound 1 IC50, IL-17 release by human PBMCs
Description: (§4) CRAC channels may play a proximal role in a calcium-calcineurin pathway leading to cytokine release in immune cells.

[9] = Long-term extension study of SAD and MAD subjects; format: in vivo, human
Description: Subjects in Groups 4 and 5 of the SAD study and Groups 1 and 2 of the MAD study who received Compound 1 were followed for 1 year in a long-term extension study to assess for adverse events and serious adverse events. In addition, PK levels were drawn in all 4 groups on Day 270 to further characterize the terminal phase and the prolonged period of residual drug level.

[10] = Rat model of acute pancreatitis (caerulein-induced), IV infusion; format: in vivo
[11] = Phase 1 multiple ascending dose study (Compound 1 Test 102), healthy subjects; conditions: for AUC(0-t) / Cmax: human, plasma, intravenous
Method: One of the subjects received placebo at the maximum dose volume of emulsion, 1.3 mL/kg, for 7 days, whereas all others were dosed on a weight-based adjustment of dose volume.

[12] = test system: IL-1β released from human PBMCs; test: Cytokine released from human PBMCs: IL-1β; format: cell-based
Description: as §4

SMILES: Cc1cccc(F)c1C(=O)Nc1cnc(-c2cc3c(cc2Cl)OC(F)(F)O3)cn1 [Compound 1, N-(5-(6-Chloro-2,2-difluorobenzo[d][1,3]dioxol-5-yl)pyrazin-2-yl)-2-fluoro-6-methylbenzamide]
- effect of timing of administration on minimizing pancreatic injury ([1]; administered early in the course of disease, later administration retains effectiveness): may be more effective
- lung myeloperoxidase; pancreas trypsin activity, myeloperoxidase activity and histopathological indices ([1]; mouse TLCS-induced and FAEE-induced pancreatitis, two IP doses): markedly reduced
- inhibition of cytokine release from human lymphocytes [2]: inhibits release of multiple cytokines; also recorded: potent, concentration-dependent inhibition
- patients with moderate TEAEs ([3]; 1 of 7 patients): 14%
- patients with severe TEAEs ([3]; 2 of 7 patients, also SAEs, not considered drug related): 29%
- number of TEAEs ([3]; 7 patients, single 2.08 mg/kg): 7 TEAEs
- patients who experienced TEAEs ([3]; 7 patients, single IV infusion of 2.08 mg/kg): 3 patients
- Discharge IL-6 levels, patients with IL-6 ≥ 1000 pg/mL ([3]; PK/PD Single Dose, admission 0): 0
- Discharge IL-6 levels, patients with 150 pg/mL ≤ IL-6 < 1000 pg/mL ([3]; PK/PD Single Dose, admission 1): 0
- TEAEs with causality Unlikely ([3]; of the 7 TEAEs): 2 TEAEs
- TEAEs with causality Unrelated ([3]; of the 7 TEAEs): 5 TEAEs
- mild TEAEs ([3]; of the 7 TEAEs): 3 TEAEs
- moderate TEAEs ([3]; of the 7 TEAEs): 2 TEAEs
- severe TEAEs (also SAEs) ([3]; of the 7 TEAEs): 2 TEAEs
- inhibition at 2.08 mg/kg ([4]; Homo sapiens, at or near Cmax, single 2.08 mg/kg IV): ~57%
- time over which the inhibitory effect dissipated ([4]; after Cmax): 1 to 2 days
- recovery of IL-2 production ([4]; after the end of the infusion): 24 h
- decrease of IL-2 production ([4]; at the end of the infusion): > 50%
- onset of action, IL-2 release inhibition ([4]; peak at the end of a 4-hour infusion): rapid onset of action
- AUC(0-t) ([5]; NOAEL 3 mg/kg/day, read-out: mean AUC24 h in monkey at the NOAEL): 29000 ng·h/mL
- NOAEL ([5]; repeat-dose, monkeys, read-out: no observable adverse effect level (NOAEL)): 3 mg/kg/day
- Ames bacterial reverse mutation assay result [6]: negative
- lung myeloperoxidase; pancreas trypsin activity, myeloperoxidase activity and histopathological indices [7]: markedly reduced
- compatibility with human plasma (human blood and plasma): compatible
- hemolysis in human blood (human blood and plasma): non-hemolytic
- IC50 [8]: 122 ± 36 nM
- number of mild AEs in the extension study ([9]; 365 days): 1
- serious adverse events and adverse events rated moderate or severe, long-term follow-up ([9]; healthy subjects followed for 365 days): safe and no serious adverse events and no adverse events rated moderate or severe in intensity and no SAEs or AEs rated moderate or severe in intensity
- lung myeloperoxidase activity (neutrophil infiltration) [10]: decrease
- mRNA levels of the cytokines TNFα and IL-6 (lung) [10]: decrease
- Cmax accumulation ([11]; MAD Group 1, 0.5 mg/kg): 1.6 fold
- increase in systemic exposure (AUC24 h), Day 7 compared to Day 1 ([11]; MAD Group 1, 0.5 mg/kg): 2.6 fold
- margin of Day 7 AUC24 h below NOAEL AUC24 h in monkey ([11]; MAD Group 1, 0.5 mg/kg): 9.1 fold
- Cmax accumulation ([11]; MAD Group 2, 1.0 mg/kg): 1.4 fold
- increase in AUC24 h, Day 7 compared to Day 1 ([11]; MAD Group 2, 1.0 mg/kg): 2.6 fold
- margin of Day 7 AUC24 h below NOAEL AUC24 h in monkey ([11]; MAD Group 2, 1.0 mg/kg): 4.2 fold
- clinically significant laboratory abnormalities ([11]; MAD group 1): No laboratory abnormalities
- SAEs and AEs classified as moderate or severe ([11]; MAD group 1, 0.50 mg/kg daily for 7 days): no SAEs and no AEs classified as moderate or severe in intensity
- number of clinical AEs (all mild) ([11]; MAD group 1, eight subjects incl. placebo): 15
- clinically significant laboratory abnormalities ([11]; MAD group 2): No laboratory abnormalities
- SAEs and AEs classified as moderate or severe ([11]; MAD group 2, 1.0 mg/kg daily for 7 days): no SAEs and no AEs classified as moderate or severe in intensity
- number of AEs (all mild) ([11]; MAD group 2, eight subjects incl. placebo): three
- cardiac function: heart rate, QTcF, B-type natriuretic peptide ([11]; MAD, both groups): no evidence of any sustained treatment related effect
- systolic or diastolic blood pressure ([11]; MAD, both groups): no evidence of any sustained treatment related increase
- AUC(0-t) ([11]; 0.5 mg/kg): 3190 ng·h/mL
- Cmax ([11]; 0.5 mg/kg): 363 ng/mL
- AUC(0-t) ([11]; 1 mg/kg): 6830 ng·h/mL
- Cmax ([11]; 1 mg/kg): 637 ng/mL
- IC50 ([12]; Homo sapiens, PBMC, mean of replicates, read-out: Mean IC50, IL-1β released from human PBMCs): 240 nM
- IC50 ([12]; Homo sapiens, PBMC, single replicates, read-out: Replicate IC50 values, IL-1β released from human PBMCs): 264 nM
- IC50 ([12]; single replicates, read-out: Replicate IC50 values, IL-1β released from human PBMCs): 217 nM
